Source: PubChem BioAssay (NCI)
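These data come from cells grown in 96-well plates and exposed to compound for 48 hours at five concentrations. At the GI50, growth is halved. TGI is the concentration that stops growth completely.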

Legend:
Assay in all cases: NCI anticancer screen, dose series, 48 h
BT-549 breast = tested on: BT-549 breast
CAKI-1 renal = tested on: CAKI-1 renal
COLO 205 colon = tested on: COLO 205 colon
DU-145 prostate = tested on: DU-145 prostate
HCT-15 colon = tested on: HCT-15 colon
HS 578T breast = tested on: HS 578T breast
K-562 leukemia = tested on: K-562 leukemia
MALME-3M melanoma = tested on: MALME-3M melanoma
MDA-MB-435 = tested on: MDA-MB-435
MDA-N = tested on: MDA-N
MOLT-4 leukemia = tested on: MOLT-4 leukemia
NCI-H226 lung = tested on: NCI-H226 lung
SF-268 CNS = tested on: SF-268 CNS
SK-MEL-2 melanoma = tested on: SK-MEL-2 melanoma
SN12C renal = tested on: SN12C renal
SR leukemia = tested on: SR leukemia

Compound | TGI (BT-549 breast) | TGI (CAKI-1 renal) | TGI (COLO 205 colon) | TGI (DU-145 prostate) | TGI (HCT-15 colon) | TGI (HS 578T breast) | TGI (K-562 leukemia) | TGI (MALME-3M melanoma) | TGI (MDA-MB-435) | TGI (MDA-N) | TGI (MOLT-4 leukemia) | TGI (NCI-H226 lung) | TGI (SF-268 CNS) | TGI (SK-MEL-2 melanoma) | TGI (SN12C renal) | TGI (SR leukemia) | GI50 (HS 578T breast) | GI50 (MOLT-4 leukemia) | GI50 (NCI-H226 lung) | GI50 (SR leukemia)
CC1(C)CCCC2CC2CCC(C)(C)C1=O (stereo not given) | > 100 µM | > 100 µM | 39 µM | > 100 µM | > 100 µM | > 100 µM | 40.1 µM | > 100 µM | > 100 µM | > 100 µM | 83.1 µM | > 100 µM | > 100 µM | > 100 µM | > 100 µM | 45.6 µM | – | – | – | –
N#CC(NNC(=O)c1c(Cl)c(Cl)c(Cl)c(Cl)c1-c1nc2ccc(C(=O)c3ccccc3)cc2[nH]1)c1ccccc1 (stereo not given) | > 100 µM | > 100 µM | 24.3 µM | > 100 µM | > 100 µM | > 100 µM | 19.3 µM | > 100 µM | 15.3 µM | 6.78 µM | 27.7 µM | 28.3 µM | > 100 µM | 58.1 µM | 31.1 µM | 11.2 µM | – | – | – | –
Clc1cc2nc(C3CCCCO3)[nH]c2cc1Cl (stereo not given) | 68.1 µM | > 100 µM | > 100 µM | > 100 µM | > 100 µM | > 71.3 µM | > 100 µM | > 100 µM | > 44.6 µM | 22.8 µM | > 100 µM | > 100 µM | > 100 µM | > 100 µM | > 100 µM | > 100 µM | – | – | – | –
CCOC(=O)c1cc(C2=CCNC2=O)c(-c2cc(C)no2)[nH]1 | > 100 µM | > 100 µM | > 100 µM | > 100 µM | > 100 µM | > 100 µM | > 100 µM | > 100 µM | > 100 µM | > 100 µM | > 100 µM | > 100 µM | > 100 µM | > 100 µM | > 100 µM | > 100 µM | – | – | – | –
O=C(CC(Cc1ccccc1)c1ccc(Oc2ccccc2)cc1)Nc1cccc(Cl)c1 (stereo not given) | 75.9 µM | > 100 µM | 19.3 µM | > 100 µM | > 100 µM | > 100 µM | > 100 µM | > 100 µM | > 100 µM | > 100 µM | 39.3 µM | 73.2 µM | > 100 µM | 13.6 µM | > 100 µM | 47.5 µM | – | – | – | –
CC(C)C1CC(CO)(CNc2nc(N)nc(Cl)c2/C=N\O)C1 (stereo not given) | 28.7 µM | 33.7 µM | 11.8 µM | > 100 µM | 32.7 µM | 53.8 µM | > 100 µM | 16 µM | 28.9 µM | 23.9 µM | 63 µM | 51.2 µM | > 79.5 µM | 26.5 µM | > 89.5 µM | > 54.2 µM | – | – | – | –
COC(O)C(=O)c1c2c(cc3c1CCC3)CCC2 (stereo not given) | > 100 µM | > 100 µM | > 100 µM | > 100 µM | > 100 µM | > 100 µM | > 100 µM | > 100 µM | > 100 µM | > 100 µM | > 100 µM | > 100 µM | > 100 µM | > 100 µM | > 100 µM | > 100 µM | – | – | – | –
Cc1nn(C(=O)c2ccc(Cl)cc2)c2c1C(c1ccccc1O)SC(N)=N2 (stereo not given) | > 10 µM | > 10 µM | > 10 µM | > 10 µM | > 10 µM | > 10 µM | > 10 µM | > 10 µM | > 10 µM | > 10 µM | > 10 µM | > 10 µM | > 10 µM | > 10 µM | > 10 µM | > 10 µM | – | – | – | –
C[C@@H](Oc1ccc(Oc2cnc3ccc(Cl)cc3n2)cc1)C(=O)O | > 100 µM | > 100 µM | > 100 µM | > 100 µM | > 100 µM | > 100 µM | > 100 µM | > 100 µM | > 100 µM | > 100 µM | > 100 µM | > 100 µM | > 100 µM | > 100 µM | > 100 µM | > 100 µM | 69.6 µM | > 23.7 µM | 67.1 µM | > 24.3 µM
CN1C(=O)N/C(=C\c2ccc(S(=O)(=O)N/N=C/c3ccccc3)cc2)C1=O | > 100 µM | > 100 µM | > 100 µM | > 100 µM | > 100 µM | > 100 µM | > 100 µM | > 100 µM | > 100 µM | > 100 µM | 83.7 µM | > 100 µM | > 100 µM | > 100 µM | > 100 µM | > 100 µM | – | – | – | –
COc1ccc(C(OC(=O)[C@H](O[Si](C)(C)C(C)(C)C)[C@@H](NC(=O)c2ccccc2)c2ccccc2)c2ccc(OC)cc2)cc1 | > 100 µM | > 100 µM | > 100 µM | > 100 µM | > 100 µM | > 100 µM | > 100 µM | > 100 µM | > 100 µM | > 100 µM | > 100 µM | > 100 µM | > 100 µM | > 100 µM | > 100 µM | > 100 µM | – | – | – | –
